In patent publication US6624140B1, “Synthetic peptides with antimicrobial and endotoxin neutralizing properties for management of the sepsis syndrome” (Academisch Ziekenhuis Bij de Universiteit van Amsterdam …, priority 1997, dated 2003):
No end group written: not given here.

Experiments:
[1] = Capture of TAG-labeled endotoxin by immobilized peptide (ECL); type: binding, Escherichia coli; settings: biotinylated BP2 on streptavidin beads; TAG-labeled J5 LPS
Method: FIGS. 5A and 5B. Capture of labeled endotoxin by immobilized synthetic peptide. 2 ng of biotinylated synthetic peptide BP2, immobilized on 20 μg of streptavidin-coated supramagnetic polystyrene beads (Dynabeads M-280, Dynal A. S., Oslo, Norway) was incubated with the indicated amounts of chemiluminescent TAG-labeled E. coli J5 LPS for 20 min at 23° C. The amount of captured endotoxin, after a washing cycle with Phosphate buffer containing 0.1% (v/v) Triton X100, was determined by electochemiluminescence detection (ECL) using an Origen Analyser (Igen Inc., Rockville, Mass.). […] The values are the means of triplicate determinations corrected for non-specific binding.
Capture of the TAG labeled J5 LPS by immobilized synthetic peptide was quantitated by electrochemiluminescence detection subsequent to washing steps with phosphate buffer containing 0.1% (w/v) Triton X100 to remove excess unbound LPS. […] This confirms the high capacity of immobilized peptides of the invention for endotoxin in solution. […] LPS with high affinity and are universal lipid A binding ligands. The above mentioned microplate experiments were employed to determine the endotoxin binding activity and specificity of the synthetic peptides and formed the basis for the development of a novel highly sensitive endotoxin assay. […] The same degree of concentration-dependent inhibition was observed when various amounts of added endotoxin were assayed directly in plasma dilutions.

[2] = system: Escherichia coli strain 018:K1:H7 Bort; test: Murine model of lethal peritonitis; type: in vivo, mice; settings: at 7 days; 100 μg/mouse (4 mg/kg) 1 h after 10^4 CFU i.p.; two experiments combined
Method: FIG. 14. Efficacy of synthetic peptide BP2 on survival in a murine model of lethal peritonitis. Outbred female Swiss-Webster mice of 7 to 8 weeks, weighing 28 to 30 g were administered a predetermined lethal dose of 104 colony forming units (CFU) of the pathogenic strain of live E. coli […] Bort organisms by intraperitoneal (i.p.) administration in 0.5 ml pyrogen-free saline. After a delay of 1 h after infection, treated groups of mice received synthetic BP2 peptide in p.f saline at a dosage of 100 μg/mouse (approximately 4 mg/kg) and negative control groups only saline. Survival was recorded at 12 or 24 h intervals during a 7 day period of observation. […]
The efficacy of the peptides of the invention in the protection of experimental animals against the toxic effects of LPS or live pathogenic bacteria was investigated with the use of murine models of lethal endotoxemia and peritonitis Laboratory mice, which are normally tolerant to high doses of endotoxin and require a lethal dose (LD100) of approximately 1 mg, may be sensitized with Actinomycin D to 10,000×lower amounts of endotoxin for lethality. […] The survival of the treated animals was recorded at 24 h intervals during a seven day period of observation and compared with the control groups. […] The survival of the animals was recorded at 12 or 24 h intervals during a 7 day period of observation and compared with the control groups. […]

[3] = Double-immunodiffusion against Re-LPS; type: binding, Escherichia coli; settings: 0.8% agarose, 16 h at 20° C.; data not shown
Method: (§1) Double-immunodiffusion of the peptides of the invention against ‘rough’ R-type E. coli D31m4 Re-LPS (List Biological Laboratories Inc., Calif.) or the structurally more complex ‘smooth’ S-type E. coli 0111:B4 LPS (Sigma Chemical Co., Rockford, Ill.) was performed in 0.8% (w/v) agarose containing 50 mM Tris and 0.1% (w/v) Triton X100, pH 7.5. for 16 h at 20° C. PmB and BPI(85-102) were included as control compounds for comparative purposes. The microprecipitates formed were visualized by Coommassie brilliant blue staining. […] Since the amount of precipitate formed is a function of valency, the peptides of the invention appear to be capable of a high degree of intermolecular binding of LPS molecules via the Lipid A moieties. […] The degree of precipitation of endotoxin by the synthetic peptides according to the invention was determined by measurement of the optical density of insoluble complexes formed at 340 nm (FIG. 2). […] Binding characteristics of biotinylated derivatives of the synthetic peptides BP1, BP2, BP2.1 and the control peptide BPI(85-102) were determined on ELISA microtiter plates coated with E. coli D31m4 Lipid A. Specific binding of the biotinylated peptides to the immobilized Lipid A was determined by development with Streptavidin-HRP and 3, 5, 3′, 5′ tetra-methylbenzidine (TMB) substrate and expressed as the corrected optical density at 450 nm. […]

[4] = Double-immunodiffusion against 0111:B4 LPS; type: binding, Escherichia coli; settings: 0.8% agarose, 16 h at 20° C.; data not shown
Method: as §1

Substance: GKWKLFKKAFKKFLKILAC-OH [BP2, Gly-Lys-Trp-Lys-Leu-Phe-Lys-Lys-Ala-Phe-Lys-Lys-Phe-Leu-Lys-Ile-Leu-Ala-Cys]
- molar excess of LPS up to which binding response is linear [1]: 2 fold
- molar excess of endotoxin at saturation [1]: 8 fold
- stochiometric ratio of peptide to LPS up to which capture is linear [1]: 1 to 2
- survival [2]: 78.5%

Substance: Ile-Lys-Ile-Ser-Gly-Lys-Trp-Lys-Ala-Gin-Lys-Arg-Phe-Leu-Lys-Met-Ser-Gly-(Cys) (IKISGKWKAQKRFLKMSGC; listed as Homo sapiens) [BPI(85-102), reference compound]
- precipitation of Re LPS [3]: considerably less
- precipitation of 0111 LPS [4]: considerably less
